In article PMC8082182 (Frontiers in Pharmacology, 2021):
Like-named read-outs stand apart in the source and are kept apart here.

What was measured:
[1] = for AUC0–24, median (IQR) / Cmax,ss, Median (IQR): Improved patients
From the text: (§1) The TDM concentration data of therapeutic drugs in adults and pediatric patients with Gram-positive bacterial infection were collected.
(§2) The population pharmacokinetics model was composed of a structural model and random effect models using the first-order conditional estimation method (FOCE) with interaction. Demographic variables (e.g., gender, age, weight, height, body mass index [BMI]), renal function descriptors (serum creatinine, eGFR, creatinine clearance rate [CLCr], and albumin, etc.), and disease conditions (e.g., surgery or injury, chronic kidney disease, diabetes, cancer) were tested as potential covariates. Covariates were evaluated using the stepwise forward-selection method and backward elimination. The population PK model for adults and pediatric patients were evaluated respectively and the model parameters were compared. In order to unify the population PK model for adults and pediatric patients, the datasets were merged and the covariates were consolidated and reevaluated. […] The established population PK model was used to simulate individual PK parameters (Cmin, Cmax, AUC0–24) by Bayesian feedback method for the further PK/PD evaluation.

[2] = Unified one-compartment population PK model (NONMEM, FOCE with interaction) for Chinese adults and pediatric patients
From the text: as §1, §2

[3] = Pulmonary, Not improved patients, IQR not reported for n < 5

## CN[C@H](CC(C)C)C(=O)N[C@H]1C(=O)N[C@@H](CC(N)=O)C(=O)N[C@H]2C(=O)N[C@H]3C(=O)N[C@H](C(=O)N[C@H](C(=O)O)c4cc(O)cc(O)c4-c4cc3ccc4O)[C@H](O)c3ccc(c(Cl)c3)Oc3cc2cc(c3O[C@@H]2O[C@H](CO)[C@@H](O)[C@H](O)[C@H]2O[C@H]2C[C@](C)(N)[C@H](O)[C@H](C)O2)Oc2ccc(cc2Cl)[C@H]1O [vancomycin]
[1]; Bloodstream
  AUC0–24, median (IQR): 215.9 (172.33, 305.85) hr*mg/L
  Cmax,ss, Median (IQR): 23.32 (17.20, 26.57) mg/L
[1]; Bloodstream, Not improved patients, IQR not reported for n < 5
  Cmax,ss, Median: 26020 ng/mL
[1]; Central nerve system
  AUC0–24, median (IQR): 303.3 (204.97, 386.18) hr*mg/L
  Cmax,ss, Median (IQR): 28.11 (24.75, 30.66) mg/L
[1]; Central nerve system, Not improved patients, IQR not reported for n < 5
  Cmax,ss, Median: 21410 ng/mL
[1]; Endocarditis
  Cmax,ss, Median (IQR): 21.50 (17.20, 23.70) mg/L
[1]; Overall
  AUC0–24, median (IQR): 217.5 (172.87, 286.34) hr*mg/L
[1]; Pulmonary
  AUC0–24, median (IQR): 219.2 (183.44, 266.38) hr*mg/L
  Cmax,ss, Median (IQR): 20.24 (16.24, 28.07) mg/L
[1]; [3]
  Cmax,ss, Median: 22600 ng/mL
  Cmin,ss, Median: 3320 ng/mL
[1]; Urinary tract
  AUC0–24, median (IQR): 196.2 (145.03, 287.92) hr*mg/L
  Cmax,ss, Median (IQR): 22.08 (15.80, 25.63) mg/L
[1]; Urinary tract, Not improved patients, IQR not reported for n < 5
  Cmax,ss, Median: 29180 ng/mL
[2]; bootstrap median
  Age effect on V (θ5): 0.331
  Body weight effect on V (θ6): 0.347
  V (θ2): 44.8 L
[2]; bootstrap median, 1,000 times
  CL (θ1): 3.82 L/h
[2]; final model estimate, exponent
  Age effect on V (θ5): 0.33
  Body weight effect on V (θ6): 0.349
[2]; final model estimate, typical value at AGE 55, WT 58.25
  V (θ2): 44.7 L
[2]; final model estimate, typical value at CLCr 90.28, WT 58.25, adults and pediatric patients
  CL (θ1): 3.83 L/h
